Experimental data as given in patent US9884012B2, “Use of PEDF-derived polypeptides for promoting muscle or tendon regeneration or arteriogenesis” (MacKay Memorial Hospital, priority 2012, dated 2018).

Experiments:
soleus muscle = experiment: bupivacaine myonecrosis model, muscle fiber size (minimal Feret's diameter); assay type: in vivo, Sprague-Dawley rats; settings: 14 days after injury; for diameters of muscle fibers on average versus blank or bolus control group: in words
Method: The muscle fiber size was determined on H&E-stained muscle cross section and quantified using the minimum distance of parallel tangents at opposing particle borders (minimal “Feret's diameter”). Pictures were captured using a Nikon Eclipse 80i light microscope, and the minimal Feret's diameter was measured using the Image-Pro Plus 4.5.1 software (Media Cybernetics). Normalization of the number of fibers in each fiber Feret class of 5 μm was based on the total number of muscle fibers in each picture.
(§1) To investigate the effects of the present PEDF peptides on muscle regeneration, a rat myonecrosis model of a single injection of bupivacaine into the soleus muscle was employed. Adult 10-week-old male Sprague-Dawley rats (initial body weight=312±11 g) were anesthetized by an intraperitoneal injection of a xylazine (10 mg/kg). Then, the soleus muscle was injured by unilaterally injecting 0.5 ml bupivacaine (AstraZeneca) with a disposable syringe with a 26-gauge needle. Briefly, the needle was inserted into the distal portion of the soleus muscle and then receded longitudinally to the proximal portion accompanying evenly bupivacaine solution injection. The solution was then injected throughout the entire length of the muscle as the needle was slowly withdrawn.
After bupivacaine injection, rats were divided equally (n=10/group) into four experimental groups and treated as follows. In the blank control group, the mice were treated with 50 μl of blank alginate gel. In the treatments groups, the mice received 50 μl of the sustained-release formulation (29-mer or 20-mer). The mice in the bolus control group received the bolus formulation (29-mer). Treatments were applied by way of a single intramuscular injection to the soleus muscle immediately after the bupivacaine perfusion.
In the later stage of muscle regeneration, newly generated muscle fibers start to gain size. Muscle specimens were collected at 14 days after injury, and respective fiber diameters were measured in accordance with the procedure set forth in the section of “Materials and Methods.” Results were summarized in FIG. 9.

[1] = in vitro release of PEDF peptides from alginate gel in PBS; assay type: physicochemical; settings: PBS pH 7.4, 37° C.; for peptide remained in the alginate gel matrix: after 24 hours, FITC-conjugated peptide in alginate hydrogel
Method: Each PEDF-derived short synthetic peptide (the 29-mer, 25-mer, 24-mer, 20-mer, 18-mer, MO 29-mer, or MO 20-mer; hereinbelow, PEDF peptide) was reconstituted in DMSO as stock (5 mM). Then, ultrapure alginate was mixed with the stock to obtain a 2% wt/vol alginate solution with PEDF peptide at a final concentration of 10 μM. The alginate solution was then filtered by membrane filter (pore size, 0.22 μm) and mixed with filtered calcium sulfate (0.21 g CaSO4/mL of dH2O) at a ratio of 25:1 (40 μL of CaSO4 per 1 mL of the filtered alginate solution). The mixture was let standing at RT for about 1 hour to allow for the cross-linking of the alginate. The resultant sustained-release formulation was then used in the treatment of muscle or tendon damage and ischemia.
To determine the release kinetics of 29-mer and 20mer, 100 μg of FITC-conjugated PEDF peptide was mixed with 100 μL alginate solution, and then hydrogels were prepared as set forth in the “Materials and Methods” section. Thereafter, 100 mg hydrogel was incubated in 1.5 ml of PBS (pH 7.4) in microcentrifuge tube and placed in an orbital shaking incubator over a 6-day period at 37° C. The tube was centrifuged at each predetermined time point and then 200 μL of supernatant was removed and stored at −80° C. for further analysis, and 200 μL of fresh PBS was added to the tube to replace the supernatant withdrawn. The concentration of FITC-conjugated PEDF peptide present in the collected supernatants was determined using a fluorimeter in 96-well format. A known non-encapsulated FITC-peptide was used to generate a standard curve. Triplicate data were used for analysis.

aortic ring explants = experiment: rat aortic ring sprouting assay (ex vivo neovessel sprouting); assay type: cell-based; settings: aortic rings cultured with PEDF peptide, in words
[2] = tested on: soleus muscle (muscle fibers, satellite cells); experiment: bupivacaine myonecrosis model, BrdU and Pax7 labeling of soleus muscle; assay type: in vivo, Sprague-Dawley rats; settings: soleus muscle after bupivacaine injection; for BrdU Labeling Index (%): 50 μl sustained-release formulation (Bolus: bolus 29-mer), single intramuscular injection; for Pax7 Labeling Index (%): sustained-release formulation (Bolus: bolus 29-mer)
Method: De-paraffinized tissue sections were blocked with 10% goat serum for 1 hour. Staining was done using primary antibodies against BrdU (1:50 dilution; GTX42641) or type I collagen 1A1 (1:50 dilution) overnight at 4° C., followed by incubation with the appropriate peroxidase-labeled donkey immunoglobulin for 30 min and then with chromogen substrate (3,3′-diaminobenzidine) for 2 min before counterstaining with hematoxylin. Quantification was estimated based on high quality images (1208×960 pixels) captured using a Nikon Eclipse 80i light microscope.
For the detection of cell expansion, BrdU was reconstituted in DMSO as stock (80 mM). 10 μl of BrdU mixed with 90 μl of PBS was intraperitoneally injected into the mouse 16 hours prior to euthanasia. Also, 150 μl of BrdU mixed with 350 μl of PBS was intraperitoneally injected into the rat 16 hours prior to euthanasia. DNA synthesis was assessed by BrdU labeling with anti-BrdU antibodies.
De-paraffinized tissue sections or 4% paraformaldehyde fixed rabbit tendon stem cells (TSCs) were blocked with 10% goat serum and 5% BSA for 1 hour. Double staining was done using primary antibodies against α-SMA (1:100 dilution), IB4 (5 μg/ml), Pax7 (1:100 dilution), nucleostemin (1:100 dilution) and type I collagen 1A1 (1:50) at 37° C. for 2 hours, followed by incubation with the appropriate rhodamine- or FITC-conjugated donkey IgG for 1 hour at RT. Nuclei were located by counterstaining with Hoechst 33258 for 7 minutes. Images were captured using a Zeiss epifluorescence microscope with a CCD camera.
as §1
After bupivacaine injection, rats were divided equally (n=10/group) into four experimental groups and treated as follows. […]
Muscle regeneration involves proliferation of muscle fibers, or muscle cells. […] Detailed assay procedures are as described in “Materials and Methods.” The level of BrdU-positive cells was expressed as labeling index (%), which was computed as the number of labeled cells divided by the total number of cells. […]

Sequence | diameters of muscle fibers on average versus blank or bolus control group (soleus muscle) | muscle fibers with a minimal Feret's diameter between 15-25 μm (soleus muscle; sustained-release formulation) | peptide remained in the alginate gel matrix [1] | peptide released from alginate gel ([1]; in the first 3 days) | neovessel phenotype by dual immunofluorescence (α-SMA / isolectin B4) (aortic ring explants) | BrdU Labeling Index (%) [2] [%] | Pax7 Labeling Index (%) [2] [%] | peptide released from alginate gel ([1]; within the first 4 days) [%]
SLGAEQRTESIIHRALYYDL [20-mer, synthetic peptide corresponding to residues 93-112 of human PEDF] | larger | about 56.6% | ~35% | about 90% | displayed arteriole phenotype with a SMC coating | 13.6 ± 3.0 | 14.6 ± 1.9 | –
SLGAEQRTESIIHRALYYDLISSPDIHGT [29-mer, synthetic peptide corresponding to residues 93-121 of human PEDF] | larger | – | approximately 48% | – | displayed arteriole phenotype with a SMC coating | 15.4 ± 1.7 | 16.2 ± 2.0 | 90
